Experimental data taken from patent US10793580B2, “Substituted pyrazoloazepin-8-ones and their use as phosphodiesterase inhibitors” (LEO Pharma A/S, priority 2016, dated 2020).
Where two headings read alike, the source gives them in different places.

Target: human PDE4D catalytic domain (Homo sapiens (Human), UniProt Q08499)
Assay: PDE4 Assay (TR-FRET, FAM-cAMP cleavage)
Format: biochemical
Settings: read-out: PDE4 IC50 range
Procedure, shortened: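 PDE4D catalytic domain (S380-L740) incubated briefly with unlabelled cAMP plus FAM-cAMP and titrated compound. Reaction stopped with binding buffer holding metal-ion nanoparticles that bind AMP phospho groups and Tb donor, and AMP formation read by TR-FRET. IC50 versus controls, reported as ranges (nM).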

[1] = human PDE4D catalytic domain (UniProt Q08499 [S380-L740]), 50% inhibition of substrate cleavage

Chain of human PDE4D catalytic domain (Q08499 380-740): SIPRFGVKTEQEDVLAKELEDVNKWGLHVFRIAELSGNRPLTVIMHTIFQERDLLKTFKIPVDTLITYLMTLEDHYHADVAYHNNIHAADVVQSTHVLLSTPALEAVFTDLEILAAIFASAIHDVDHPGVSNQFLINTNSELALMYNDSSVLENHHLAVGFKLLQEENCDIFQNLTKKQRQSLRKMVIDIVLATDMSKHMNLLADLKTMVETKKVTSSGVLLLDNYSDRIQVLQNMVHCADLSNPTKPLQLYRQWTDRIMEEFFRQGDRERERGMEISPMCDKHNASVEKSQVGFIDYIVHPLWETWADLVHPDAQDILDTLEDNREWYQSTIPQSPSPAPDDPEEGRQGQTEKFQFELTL

SMILES | IC50 [1] | IC50 (Table 16, Examples 277-296)
CCn1nc(CC(C)(C)COC(=O)c2ccccc2OC)c2c1C(=O)NCC1(CCOCC1)C2 [Example 198, [3-(1-ethyl-8-oxo-spiro[6,7-dihydro-4H-pyrazolo[3,4-c]azepine-5,4′-tetrahydropyran]-3-yl)-2,2-dimethyl-propyl] 2-methoxybenzoate] | < 100 nM | –
CCn1nc(CCOC(=O)C2CCOCC2)c2c1C(=O)NCC1(CCOCC1)C2 [Example 276, 2-(1-ethyl-8-oxo-spiro[6,7-dihydro-4H-pyrazolo[3,4-c]azepine-5,4′-tetrahydropyran]-3-yl)ethyl tetrahydropyran-4-carboxylate] | 100 to 500 nM | –
CCn1nc(CC(C)(C)COC(=O)c2cccc(C(C)=O)c2)c2c1C(=O)NCC1(CCOCC1)C2 [Example 201, [3-(1-ethyl-8-oxo-spiro[6,7-dihydro-4H-pyrazolo[3,4-c]azepine-5,4′-tetrahydropyran]-3-yl)-2,2-dimethyl-propyl] 3-acetylbenzoate] | < 100 nM | –
CCn1nc(CCCOC(=O)c2ccc(C(C)=O)cc2)c2c1C(=O)NCC1(CCOCC1)C2 [Example 27, 3-(1-ethyl-8-oxo-spiro[6,7-dihydro-4H-pyrazolo[3,4-c]azepine-5,4′-tetrahydropyran]-3-yl)propyl 4-acetylbenzoate] | < 100 nM | –
CCn1nc(CC(C)(C)COC(=O)c2ccc(C(N)=O)cc2)c2c1C(=O)NCC1(CCOCC1)C2 [Example 218, [3-(1-ethyl-8-oxo-spiro[6,7-dihydro-4H-pyrazolo[3,4-c]azepine-5,4′-tetrahydropyran]-3-yl)-2,2-dimethyl-propyl] 4-carbamoylbenzoate] | < 100 nM | –
CCn1nc(C[C@@H](C)COC(=O)c2cnsc2)c2c1C(=O)NCC1(CCOCC1)C2 [Example 284, [(2R)-3-(1-ethyl-8-oxo-spiro[6,7-dihydro-4H-pyrazolo[3,4-c]azepine-5,4′-tetrahydropyran]-3-yl)-2-methyl-propyl] isothiazole-4-carboxylate] | – | < 100 nM
CCn1nc(CCCOC(=O)c2cc(C)ns2)c2c1C(=O)NCC1(CCOCC1)C2 [Example 253, 3-(1-ethyl-8-oxo-spiro[6,7-dihydro-4H-pyrazolo[3,4-c]azepine-5,4′-tetrahydropyran]-3-yl)propyl 3-methylisothiazole-5-carboxylate] | < 100 nM | –
CCn1nc(CC(C)(C)COC(=O)c2cccc(S(=O)(=O)N3CCCC3)c2)c2c1C(=O)NCC1(CCOCC1)C2 [Example 210, [3-(1-ethyl-8-oxo-spiro[6,7-dihydro-4H-pyrazolo[3,4-c]azepine-5,4′-tetrahydropyran]-3-yl)-2,2-dimethyl-propyl] 3-pyrrolidin-1-ylsulfonylbenzoate] | < 100 nM | –
CCn1nc(CCCOC(=O)c2cccc(F)c2Cl)c2c1C(=O)NCC1(CCOCC1)C2 [Example 49, 3-(1-ethyl-8-oxo-spiro[6,7-dihydro-4H-pyrazolo[3,4-c]azepine-5,4′-tetrahydropyran]-3-yl)propyl 2-chloro-3-fluoro-benzoate] | < 100 nM | –
CCn1nc(C[C@@H](C)COC(=O)c2ccc(C)cc2)c2c1C(=O)NCC1(CCOCC1)C2 [Example 140, [(2R)-3-(1-ethyl-8-oxo-spiro[6,7-dihydro-4H-pyrazolo[3,4-c]azepine-5,4′-tetrahydropyran]-3-yl)-2-methyl-propyl] 4-methylbenzoate] | < 100 nM | –
CCn1nc(CC(C)(C)COC(=O)c2cccc(C(=O)N3CCN(C)CC3)c2)c2c1C(=O)NCC1(CCOCC1)C2 [Example 233, [3-(1-ethyl-8-oxo-spiro[6,7-dihydro-4H-pyrazolo[3,4-c]azepine-5,4′-tetrahydro-pyran]-3-yl)-2,2-dimethyl-propyl] 3-(4-methyl-piperazine-1-carbonyl)-benzoate] | < 100 nM | –
CCn1nc(CCCOC(=O)c2ccc(F)cc2)c2c1C(=O)NCC1(CCOCC1)C2 [Example 10, 3-(1-ethyl-8-oxo-spiro[6,7-dihydro-4H-pyrazolo[3,4-c]azepine-5,4′-tetrahydropyran]-3-yl)propyl 4-fluorobenzoate] | < 100 nM | –
CCn1nc(CCCOC(=O)c2ccc(C(F)(F)F)cc2Cl)c2c1C(=O)NCC1(CCOCC1)C2 [Example 88, 3-(1-ethyl-8-oxo-spiro[6,7-dihydro-4H-pyrazolo[3,4-c]azepine-5,4′-tetrahydro-pyran]-3-yl)propyl 2-chloro-4-(trifluoromethyl)benzoate] | < 100 nM | –
CCn1nc(C[C@@H](C)COC(=O)c2ccc(C(N)=O)cc2)c2c1C(=O)NCC1(CCOCC1)C2 [Example 169, [(2R)-3-(1-ethyl-8-oxo-spiro[6,7-dihydro-4H-pyrazolo[3,4-c]azepine-5,4′-tetrahydropyran]-3-yl)-2-methyl-propyl] 4-carbamoylbenzoate] | < 100 nM | –
CCn1nc(CCCCOC(=O)c2cnc(C)o2)c2c1C(=O)NCC1(CCOCC1)C2 [Example 267, 4-(1-ethyl-8-oxo-spiro[6,7-dihydro-4H-pyrazolo[3,4-c]azepine-5,4′-tetrahydropyran]-3-yl)butyl 2-methyloxazole-5-carboxylate] | < 100 nM | –
CCn1nc(CCCOC(=O)c2ccc(OC)cc2F)c2c1C(=O)NCC1(CCOCC1)C2 [Example 38, 3-(1-ethyl-8-oxo-spiro[6,7-dihydro-4H-pyrazolo[3,4-c]azepine-5,4′-tetrahydropyran]-3-yl)propyl 2-fluoro-4-methoxy-benzoate] | < 100 nM | –
CCn1nc(CCCOC(=O)c2cnc(C)o2)c2c1C(=O)NCC1(CCOCC1)C2 [Example 241, 3-(1-ethyl-8-oxo-spiro[6,7-dihydro-4H-pyrazolo[3,4-c]azepine-5,4′-tetrahydropyran]-3-yl)propyl 2-methyloxazole-5-carboxylate] | < 100 nM | –
CCn1nc(CCCOC(=O)c2cc(C)n(C)n2)c2c1C(=O)NCC1(CCOCC1)C2 [Example 249, 3-(1-ethyl-8-oxo-spiro[6,7-dihydro-4H-pyrazolo[3,4-c]azepine-5,4′-tetrahydro-pyran]-3-yl)propyl 1,5-dimethylpyrazole-3-carboxylate] | < 100 nM | –
CCn1nc(CC(C)(C)COC(=O)c2cccc(OC)c2)c2c1C(=O)NCC1(CCOCC1)C2 [Example 196, [3-(1-ethyl-8-oxo-spiro[6,7-dihydro-4H-pyrazolo[3,4-c]azepine-5,4′-tetrahydropyran]-3-yl)-2,2-dimethyl-propyl] 3-methoxybenzoate] | < 100 nM | –
CCn1nc(CCCCOC(=O)c2cnsc2)c2c1C(=O)NCC1(CCOCC1)C2 [Example 268, 4-(1-ethyl-8-oxo-spiro[6,7-dihydro-4H-pyrazolo[3,4-c]azepine-5,4′-tetrahydropyran]-3-yl)butyl isothiazole-4-carboxylate] | < 100 nM | –
CCn1nc(CC(C)(C)COC(=O)c2ccccc2F)c2c1C(=O)NCC1(CCOCC1)C2 [Example 193, [3-(1-ethyl-8-oxo-spiro[6,7-dihydro-4H-pyrazolo[3,4-c]azepine-5,4′-tetrahydropyran]-3-yl)-2,2-dimethyl-propyl] 2-fluorobenzoate] | < 100 nM | –
CCn1nc(C[C@@H](C)COC(=O)c2coc(C)n2)c2c1C(=O)NCC1(CCOCC1)C2 [Example 281, [(2R)-3-(1-ethyl-8-oxo-spiro[6,7-dihydro-4H-pyrazolo[3,4-c]azepine-5,4′-tetrahydropyran]-3-yl)-2-methyl-propyl] 2-methyloxazole-4-carboxylate] | – | < 100 nM
CCn1nc(CCCCOC(=O)c2ccc(C(N)=O)cc2)c2c1C(=O)NCC1(CCOCC1)C2 [Example 127, 4-(1-ethyl-8-oxo-spiro[6,7-dihydro-4H-pyrazolo[3,4-c]azepine-5,4′-tetrahydropyran]-3-yl)butyl 4-carbamoylbenzoate] | < 100 nM | –
CCn1nc(CCCOC(=O)c2ccc(C)c(C)c2)c2c1C(=O)NCC1(CCOCC1)C2 [Example 13, 3-(1-ethyl-8-oxo-spiro[6,7-dihydro-4H-pyrazolo[3,4-c]azepine-5,4′-tetrahydropyran]-3-yl) propyl 3,4-dimethylbenzoate] | < 100 nM | –
CCn1cc(C(=O)OCCCc2nn(CC)c3c2CC2(CCOCC2)CNC3=O)cn1 [Example 250, 3-(1-ethyl-8-oxo-spiro[6,7-dihydro-4H-pyrazolo[3,4-c]azepine-5,4′-tetrahydropyran]-3-yl)propyl 1-ethylpyrazole-4-carboxylate] | < 100 nM | –
CCn1nc(CCCOC(=O)c2cc(Cl)ccc2C)c2c1C(=O)NCC1(CCOCC1)C2 [Example 44, 3-(1-ethyl-8-oxo-spiro[6,7-dihydro-4H-pyrazolo[3,4-c]azepine-5,4′-tetrahydropyran]-3-yl)propyl 5-chloro-2-methyl-benzoate] | < 100 nM | –
CCn1nc(CCCOC(=O)c2ccc(F)c(C#N)c2)c2c1C(=O)NCC1(CCOCC1)C2 [Example 30, 3-(1-ethyl-8-oxo-spiro[6,7-dihydro-4H-pyrazolo[3,4-c]azepine-5,4′-tetrahydropyran]-3-yl)propyl 3-cyano-4-fluoro-benzoate] | < 100 nM | –
CCn1nc(CC(C)(C)COC(=O)c2ccc(C(=O)N3CCN(C)CC3)cc2)c2c1C(=O)NCC1(CCOCC1)C2 [Example 224, [3-(1-ethyl-8-oxo-spiro[6,7-dihydro-4H-pyrazolo[3,4-c]azepine-5,4′-tetrahydro-pyran]-3-yl)-2,2-dimethyl-propyl] 4-(4-methyl-piperazine-1-carbonyl)-benzoate] | < 100 nM | –
CCn1nc(CCCOC(=O)c2ccc(C(F)(F)F)c(C(F)(F)F)c2)c2c1C(=O)NCC1(CCOCC1)C2 [Example 98, 3-(1-ethyl-8-oxo-spiro[6,7-dihydro-4H-pyrazolo[3,4-c]azepine-5,4′-tetrahydropyran]-3-yl)propyl 3,4-bis(trifluoromethyl)benzoate] | < 100 nM | –
CCn1nc(CCCOC(=O)c2ccc(OC)cc2)c2c1C(=O)NCC1(CCOCC1)C2 [Example 16, 3-(1-ethyl-8-oxo-spiro[6,7-dihydro-4H-pyrazolo[3,4-c]azepine-5,4′-tetrahydropyran]-3-yl)propyl 4-methoxybenzoate] | < 100 nM | –
